Several values for one entry are separate records, joined by “and”; a condition that tells them apart may be missing. Equal values may be shown once.

Data set [1] concerns eosinophils. In words: Inhibitor studies on formation of Eoxin C4 and LTC4 in eosinophils. Type of data set: cell-based, human. Particulars: 2 min preincubation, A23187 (1 μM) and arachidonic acid, 5 min, 37° C. Here is the method:
Isolated eosinophils (5-10×10^6/sample) were resuspended in phosphate buffered saline (1 ml/sample) and preincubated for 2 minutes in 37° C. prior to stimulation with Eox A4 (10 μM), LTA4 (10 μM) or both for 5 minutes in 37° C. Alternatively, for inhibitor studies, eosinophils were preincubated for 2 minutes in 37° C. in presence of BW70C (1 μM) or MK886 (10 μM) prior to stimulation with ionophore A23187 (1 μM) and arachidonic acid (40 μM) for 5 minutes in 37° C. The reactions were terminated by addition of three volumes of methanol. Metabolites were detected and quantified utilising Waters 996 photodiode array spectrophotometer connected to Waters 1996 HPLC system.

For data set [2], the system named is eosinophils. In words: Biosynthesis of 14,15-LTC4 and LTC4 in eosinophils (RP-HPLC). Particulars: ionophore A23187 (1 μM), 5 min, 37° C.; one line per donor 1-11. The format is cell-based, human. Here is the method:
(§1) Human eosinophils contain abundant amounts of both 15-lipoxygenase and 5-lipoxygenase. […] The cells were incubated for five minutes at 37° C. and the amounts of 14,15-LTC4 and LTC4 were analyzed with RP-HPLC. […] Therefore, measurement of these metabolites is considered to reflect the total formation of 15-lipoxygenase derived cysteinyl-containing 14,15-leukotrienes and 5-lipoxygenase derived cysteinyl-containing leukotriens, respectively.
(§2) Isolated eosinophils (1-20×10^6/sample) were resuspended in phosphate buffered saline (1 ml/sample) and pre-incubated for 2 minutes in 37° C. (in presence or absence of indomethacin, 1 μM) prior to stimulation with ionophore A23187 (1 μM)/arachidonic acid (1 or 10 μM)/A23187 plus arachidonic acid/PGD2 (1 μM)/LTC4 (1 μM)/IL-5 (10 ng/ml)/14,15-LTC4 (10 μM) or 14,15-LTD4 (10 μM) for indicated time periods at 37° C. The incubations were terminated by addition of one volume of methanol (for analysis by RP-HPLC). For subsequent analysis by enzyme immunoassay (EIA), reactions were terminated by rapid cool off, 0° C., before centrifugation at 1200×g, 5 min. Supernatants were transferred to cryo tubes and stored in −70° C. until analyzed.
In order to get rid of cellular debris and proteins, centrifugation at 1200×g for 5 min. was performed. Supernatants were evaporated under reduced pressure and the residues resolved in methanol and transferred to a test tube. Samples were thereafter evaporated to dryness under a stream of nitrogen, and finally resuspended in 200 μl mobile phase (acetonitril:methanol:H20:acetic acid, 29:19:72:0.8, pH adjusted to 5.6 with NH3 for analysis of leukotrienes and 14,15-leukotrienes, and methanol:water:trifluoroacetic acid 70:30:0.007 for analysis of monohydroxy acids). The extracted samples were subjected to analysis in a reverse phase HPLC system as described. Briefly, samples were applied to a octadecyl reverse phase column (Chromabond ^18C, Macherey-Nagel, Duren, Germany) and elution rate was 1.2 ml/minute.

The test system of data set [3] is Hodgkin cell line L1236. In words: Inhibition of EoxC4 formation in the human cell line L1236. Type of data set: cell-based. The protocol:
[…] After pre-incubation with the test substance for 5 minutes, arachidonic acid (40 μM) was added. Incubation was stopped after 2 minutes with addition of one volume of methanol. Each test substance concentration was incubated in duplicate.
Cells and cell debris were removed by centrifugation (2600 rpm, 6 min) from the samples. The supernatant was diluted with water and then transferred to a washed and equilibrated extraction cartridge, Oasis HLB 1 cc 10 mg (Waters, Sweden). The metabolites were eluted with methanol and diluted with water before injected to the HPLC system.
RP-HPLC was performed on a Nova Pak C18 column (2.1×150 mm, Waters AB, Sweden). The initial mobile phase consists of 100% A (0.05% (8.7 mM) acetic acid, with pH adjusted to 5.6 with ammonium) at a flow rate at 0.4 mL/min. A linear gradient was started after five minutes to 36% B (60:40 acetonitrile:methanol) at 20 minutes. The mobile phase was than held isocratic at 64:36, A:B for another 20 minutes. Column effluent was monitored using diode array detection (PDA 996, Waters AB, Sweden) and UV spectra were acquired between 200-340 nm.
[…] Incubation and extraction was performed as described above.

The test system of data set [4] is confluent bovine endothelium cells. In words: Endothelial cell barrier function (TEER), Example 6a. Type of data set: cell-based. The settings on record: for plasma leakage / change in TEER: 10^−7 and 10^−8 M; for potency relative to the most potent 5-lipoxygenase derived leukotrienes: FIG. 22. Here is the method:
Bovine aorta endothelial cells (BAEC) and human umbilical vein endothelial cells (HUVEC) were isolated and cultured with calf serum or human serum. BAEC or HUVEC in the first to fifth passages were detached by brief (2 min) trypsin-EDTA treatment (0.25% trypsin/0.01% EDTA) and replated onto 3.0 μm pore size polycarbonate filters (Tissue Culture inserts, 10 mm; NUNC, Roskilde, Denmark) or, for the purpose of visual inspection, 0.2 μm pore size Anopore inorganic membrane (transparent when wet). In order to promote cellular differentiation and enhance attachment of EC, the filters were pretreated with 50 μl Biomatrix 1 (167 μg/ml) and air-dried. EC were seeded at a density of 2×10^5 cells per filter and incubated in culture medium at 37° C. in a humidified atmosphere of 5% CO2 in air. The EC were grown to confluent monolayers, as assessed by daily microscopic observation, in transparent 0.2 μm pore size filters and measurement of the electrical resistance across the monolayer. Under these experimental conditions maximal resistance is obtained at day 7 postseeding, at which day the EC monolayers were then used in the experiments.
Rapid changes in endothelial cell (EC) barrier function in response to various arachidonic acid metabolites were analysed through continuous registration of transendothelial electrical resistance (TEER) with electrodes on each side of EC monolayer^18. For measurement of TEER, the filter insert with ECs was transferred to a resistance measurement chamber (Endohm-12, World Precision Instruments, Sarasota, Fla., USA) modified so as to assure exact positioning of the electrodes in relation to each other and to the filter insert daring repeated measurements. The chamber (low compartment) and the filter insert (upper compartment) were filled with 2 ml and 400 μl culture medium, respectively. All measurements were made at 37° C. with the equipment placed in a cell culture incubator. Direct readings of the electrical resistance were given by an ohmmeter (Evom, World Precision Instruments, Sarasota, Fla., US) connected to the electrodes of the resistance chamber. The electrical resistance of individual EC monolayers was obtained by subtracting the resistance of the corresponding naked filter coated with Biomatrix as measured prior to seeding of the EC. Thus, TEER values represent the resistance of the EC monolayer solely and depend on the development of tight junctions between adjoining endothelial cells.

Data set [5] relates to neutrophils. In words: Oxidative metabolism of neutrophils, lucigenin-enhanced chemiluminescence. Type of data set: cell-based, human. The protocol: (§3) Neutrophil and eosinophil granulocytes were purified from peripheral whole blood using a Percoll gradient and the magnetic cell separation system (MACS).
(§4) Granulocytes were primed for 30 minutes at 37° C. with either IL-5 (10.5 ng/mL) or GM-CSF (10.5 ng/mL) and subsequently stimulated with IL-5 (100 ng/mL), GM-CSF (100 ng/mL), LTB4 (10^−7M) or Eoxin (10^−8-10^−6M). Oxidative metabolism was measured by a lucigenin-enhanced chemiluminescence (CL) assay.

Data set [6] is described as follows: Non-enzymatic metabolism during incubation at 37° C. The format is physicochemical. Particulars: 60 min incubation at 37° C. The protocol:
In order to analyze if eosinophils can metabolize 14,15-LTC4 to 14,15-LTD4 and 14,15-LTE4, eosinophils were incubated with synthetic 14,15-LTC4 or 14 (R)-cysteinyl-glycyl-15(S)-hydroxy-5,8,10,12(Z,Z,E,E)-eicosatetraenoic acid (14,15-LTD4) for 60 min at 37° C. The metabolites formed were analyzed with product ion scan at 497.2 m/z for 14,15-LTD4 and 440.2 m/z for 14,15-LTE4. The retention time and mass spectrum of a product formed (Metabolite 2) from 14,15-LTC4 were identical to synthetic 14,15-LTD4 (FIG. 30B), and a product formed (Metabolite 3) after incubation with 14,15-LTD4 had identical retention time and mass spectrum as synthetic 14 (R)-cysteinyl-15(S)-hydroxy-5,8,10,12(Z,Z,E,E)-eicosatetraenoic (14,15-LTE4) (FIG. 30C). […] (data not shown). Basically, the product ion mass spectra of 14,15-leukotrienes and corresponding 5-lipoxygenase derived cysteinyl-leukotrienes are almost identical. However, 14,15-leukotrienes form a fragment at 205 m/z, whereas the corresponding fragment in 5-lipoxygenase derived cysteinyl-leukotrienes is at 189 m/z (FIG. 31). These collision induced dissociation products are probably formed by a cleavage next to the carbon where the cysteinyl group is positioned, which is at carbon 14 for 14,15-leukotrienes and carbon 6 for leukotrienes.

Data set [7] relates to eosinophils. In words: Oxidative metabolism of eosinophils, lucigenin-enhanced chemiluminescence. Type of data set: cell-based, human. The protocol: as §3, §4
The subject of data set [8] is eosinophils. In words: Receptor mediated activation of 14,15-LTC4 biosynthesis in eosinophils (EIA). The format is cell-based, human. Particulars: LTC4 (1 μM), PGD2 (1 μM) or IL-5 (10 ng/ml), 5 min, 37° C. Here is the method: A possible receptor mediated activation of 14,15-LTC4 formation was investigated by using the allergen induced mast cell mediators LTC4 and prostaglandin (PG) D2 as well as IL-5, which is a potent eosinophil activator. Isolated eosinophils (10×10^6/sample) were incubated for 5 min, at 37° C. with LTC4 (1 μM), PGD2 (1 μM) or IL-5 (10 ng/ml). Leukotriene C4, PGD2 and IL-5 all induced release of 14,15-LTC4 from eosinophils after 5 min of incubation (table 2).
as §2
Supernatants were diluted in EIA buffer and analyses were performed according to the manufacturer's protocol. The optical density (OD) from the EIA determinations was used to calculate % B/B0 according to the relationship: […]

Data set [9] has as its system eosinophils. In words: Metabolism in eosinophils after 5 min of incubation. The protocol: as §1

As to `CC(/C=C/c1cccc(Oc2ccc(F)cc2)c1)N(O)C(N)=O` (stereo not shown) [BW70C], the “LTC4 peak (LTC4 formation)” value in [1] (BW70C 1 μM) is “totally abolished”.

With `CNc1ccc2oc(C[C@H]3O[C@@]4(CC[C@H]3C)O[C@H]([C@H](C)C(=O)c3ccc[nH]3)[C@H](C)C[C@H]4C)nc2c1C(=O)O` [Compound A23187], in [2], the “14,15-LTC4” value worked out at 0 pmol/10^7; the LTC4 was 198 pmol/10^7 and 494 pmol/10^7 and 82 pmol/10^7 and 108 pmol/10^7 and 64 pmol/10^7 and 326 pmol/10^7 and 170 pmol/10^7 and 30 pmol/10^7 and 264 pmol/10^7 and 50 pmol/10^7 and 40 pmol/10^7.

Regarding `CCCCCC#CCC#CCC#CCC#CCCCC(=O)O` [ETYA, Eicosatetraynoic acid], in data set [3] (ETYA 10^−4-4 M, FIG. 26), the “formation of EoxC4” value is “completely blocked” and the “formation of EoxD4” value was “completely blocked”. Moreover, in [3] (ETYA 10^−5-5 M), the “formation of EoxC4” value was “decreased” and the “formation of EoxD4” value is on record as “decreased”.

Consider `CCCCC[C@H](O)[C@@H](/C=C/C=C/C=C\C/C=C\CCCC(=O)O)SC[C@H](N)C(=O)NCC(=O)O` [EoxD4, 14 (R)-cysteinyl-glycyl-15 (S)-hydroxy-5,8,10,12 (Z,Z,E,E)-eicosatetraenoic acid], for which, in [4], the “plasma leakage / change in TEER” value was “induce significant plasma leakage” and the “potency relative to the most potent 5-lipoxygenase derived leukotrienes” value is reported as “about five to ten times less potent”. The “radical production by GM-CSF primed neutrophils” value in [5] (GM-CSF (10.5 ng/mL) primed, Eoxin 10^−8-10^−6M) is “induced the radical production by primed cells in a dose-dependent manner”. Further, the responders in [5] (GM-CSF primed neutrophils) was 7-10 subjects of 13. In addition, in data set [6], the non-enzymatic metabolism result is listed as “no non-enzymatic metabolism”.

Regarding `CCCCC[C@H](O)[C@@H](/C=C/C=C/C=C\C/C=C\CCCC(=O)O)SC[C@H](N)C(=O)O` [EoxE4, 14 (R)-cysteinyl-15 (S)-hydroxy-5,8,10,12 (Z,Z,E,E)-eicosatetraenoic acid], in [4], the “plasma leakage / change in TEER” value is recorded as “induce significant plasma leakage” and the “potency relative to the most potent 5-lipoxygenase derived leukotrienes” value is “about five to ten times less potent”. Also, the “radical production by IL-5 primed eosinophils” value in data set [7] (IL-5 (10.5 ng/mL) primed, Eoxin 10^−8-10^−6M) is “broad dose-related induction of the radical production”. Also, the responders in data set [7] (IL-5 primed eosinophils) is recorded as 3 of 6 subjects.

With `CCCCC/C=C\C\C=C/C=C/C=C/[C@@H](SC[C@H](NC(=O)CC[C@H](N)C(=O)O)C(=O)NCC(=O)O)[C@@H](O)CCCC(=O)O` [LTC4, leukotriene C4], in data set [8], the “14,15-LTC4” value was 56.2 ± 42.5 pg/10^7 cell. For the same compound, in [9], the metabolism in eosinophils entry is listed as “almost no metabolism”.

As for `CC(C)c1ccc2c(c1)c(SC(C)(C)C)c(CC(C)(C)C(=O)O)n2Cc1ccc(Cl)cc1` [MK886], the EoxC4 synthesis entry in [1] (MK886 10 μM) is “blocked”.

Take `CCCCC[C@H](O)/C=C/[C@H]1C(=O)C[C@H](O)[C@@H]1C/C=C\CCCC(=O)O` [PGD2, prostaglandin D2]: the “14,15-LTC4” value in data set [8] is listed as 43.8 ± 16.9 pg/10^7 cell.

For “GM-CSF: the cytokine GM-CSF, a known activator of the oxidative metabolism”, the “oxygen free radical production by non-primed neutrophils” value in data set [5] (non-primed blood neutrophils, GM-CSF 100 ng/mL, LTB4 10^−7M, Eoxin 10^−8-10^−6M) is listed as “induced the oxygen free radical production”.

In the case of “IL-5: IL-5, which is a potent eosinophil activator”, the “14,15-LTC4” value in data set [8] stood at 131 ± 4.9 pg/10^7 cell.

The values above are taken from patent US20090247634A1, “Methods for identifying modulators of eoxin formation” (priority 2006, published 2009).
